Experimental data from patent US20230157289A1, “HERBICIDAL PHENYLURACILS” (BASF-SE, priority 2020, published 2023).
Where two headings read alike, the source gives them in different places.

Columns and labels:
Assay type in all cases: in vivo
Amaranthus retroflexus = assay: greenhouse post-emergence herbicidal test, AMARE
Text: (§1) The culture containers used were plastic flowerpots containing loamy sand with approximately 3.0% of humus as the substrate. The seeds of the test plants were sown separately for each species.
(§2) For the pre-emergence treatment, the active ingredients, which had been suspended or emulsified in water, were applied directly after sowing by means of finely distributing nozzles. The containers were irrigated gently to promote germination and growth and subsequently covered with transparent plastic hoods until the test plants had rooted. This cover caused uniform germination of the test plants, unless this had been impaired by the active ingredients. For the post-emergence treatment, the test plants were first grown to a height of 3 to 15 cm, depending on the plant habit, and only then treated with the active ingredients which had been suspended or emulsified in water. For this purpose, the test plants were either sown directly and grown in the same containers, or they were first grown separately as seedlings and transplanted into the test containers a few days prior to treatment.
(§3) Depending on the species, the test plants were kept at 10 - 25° C. or 20 - 35° C., respectively. The test period extended over 2 to 4 weeks. During this time, the test plants were tended, and their response to the individual treatments was evaluated.
(§4) Evaluation was carried out using a scale from 0 to 100. 100 means no emergence of the test plants, or complete destruction of at least the aerial moieties, and 0 means no damage, or normal course of growth. A good herbicidal activity is given at values of at least 70 and a very good herbicidal activity is given at values of at least 85.

Chenopodium album = assay: greenhouse post-emergence herbicidal test, CHEAL
Text: as §1, §2, §3, §4

Setaria viridis = assay: greenhouse post-emergence herbicidal test, SETVI
Text: as §1, §2, §3, §4

Alopecurus myosuroides = assay: greenhouse post-emergence herbicidal test, ALOMY; conditions: scale from 0 to 100
Text: as §1, §2, §3, §4

Lolium multiflorum = assay: greenhouse post-emergence herbicidal test, LOLMU; conditions: scale from 0 to 100
Text: as §1, §2, §3, §4

Avena fatua = assay: greenhouse post-emergence herbicidal test, AVEFA; conditions: application rate 2 g/ha, scale from 0 to 100
Text: as §1, §2, §3, §4

Echinocloa crus-galli = assay: greenhouse post-emergence herbicidal test, ECHCG; conditions: scale from 0 to 100
Text: as §1, §2, §3, §4

[1] = application rate 16 g/ha, AMARE, scale from 0 to 100, read-out: herbicidal activity
[2] = application rate 16 g/ha, CHEAL, scale from 0 to 100, read-out: herbicidal activity
[3] = application rate 16 g/ha, SETVI, scale from 0 to 100, read-out: herbicidal activity

In the case of `C=CCOC(=O)C(OC)Oc1ccccc1Oc1cc(-n2c(=O)cc(C(F)(F)F)n(C)c2=O)c(F)cc1Br` (racemic) [example 4, allyl rac-2-[2-[2-bromo-4-fluoro-5-[3-methyl-2,6-dioxo-4-(trifluoromethyl)pyrimidin-1-yl]phenoxy]phenoxy]-2-methoxy-acetate], the pest or weed control at 16 g/ha (Amaranthus retroflexus; [1]) is reported as > 85%, the pest or weed control at 16 g/ha (Chenopodium album; [2]) is reported as > 85% and the pest or weed control at 16 g/ha (Setaria viridis; [3]) is reported as > 85%.
For `C#CCOC(=O)C(OC)Oc1ccccc1Oc1cc(-n2c(=O)cc(C(F)(F)F)n(C)c2=O)c(F)cc1Br` (racemic) [example 5, prop-2-ynyl rac-2-[2-[2-bromo-4-fluoro-5-[3-methyl-2,6-dioxo-4-(trifluoromethyl)pyrimidin-1-yl]phenoxy]phenoxy]-2-methoxy-acetate], the pest or weed control at 16 g/ha (Amaranthus retroflexus; [1]) was > 85%, the pest or weed control at 16 g/ha (Chenopodium album; [2]) was > 85% and the pest or weed control at 16 g/ha (Setaria viridis; [3]) was > 85%.
`COCCOC(=O)C(OC)Oc1ccccc1Oc1cc(-n2c(=O)cc(C(F)(F)F)n(C)c2=O)c(F)cc1Br` (racemic) [example 6, 2-methoxyethyl rac-2-[2-[2-bromo-4-fluoro-5-[3-methyl-2,6-dioxo-4-(trifluoromethyl)pyrimidin-1-yl]phenoxy]phenoxy]-2-methoxy-acetate] was tested, and the pest or weed control at 16 g/ha (Amaranthus retroflexus; [1]) was > 85%, the pest or weed control at 16 g/ha (Chenopodium album; [2]) was > 70% and the pest or weed control at 16 g/ha (Setaria viridis; [3]) was > 70%.
In the case of `COC(Oc1ccccc1Oc1cc(-n2c(=O)cc(C(F)(F)F)n(C)c2=O)c(F)cc1Br)C(=O)NS(C)(=O)=O` (racemic) [example 8, rac-2-[2-[2-bromo-4-fluoro-5-[3-methyl-2,6-dioxo-4-(trifluoromethyl)pyrimidin-1-yl]phenoxy]phenoxy]-2-methoxy-N-methylsulfonyl-acetamide], the pest or weed control at 16 g/ha (Amaranthus retroflexus; [1]) is reported as > 85%, the pest or weed control at 16 g/ha (Chenopodium album; [2]) is reported as > 85% and the pest or weed control at 16 g/ha (Setaria viridis; [3]) is reported as > 85%.
For `COC(=O)C(Oc1ccccc1Oc1cc(-n2c(=O)cc(C(F)(F)F)n(C)c2=O)c(F)cc1Br)SC` (racemic) [example 9, methyl rac-2-[2-[2-bromo-4-fluoro-5-[3-methyl-2,6-dioxo-4-(trifluoromethyl)pyrimidin-1-yl]phenoxy]phenoxy]-2-methylsulfanyl-acetate], the pest or weed control at 16 g/ha (Amaranthus retroflexus; [1]) was > 85%, the pest or weed control at 16 g/ha (Chenopodium album; [2]) was > 85% and the pest or weed control at 16 g/ha (Setaria viridis; [3]) was > 85%.
For `CCOC(=O)C(F)Oc1ccccc1Oc1cc(-n2c(=O)cc(C(F)(F)F)n(C)c2=O)c(F)cc1Br` (racemic) [example 10, ethyl rac-2-[2-[2-bromo-4-fluoro-5-[3-methyl-2,6-dioxo-4-(trifluoromethyl)pyrimidin-1-yl]phenoxy]phenoxy]-2-fluoro-acetate], the pest or weed control at 16 g/ha (Amaranthus retroflexus; [1]) was > 85%, the pest or weed control at 16 g/ha (Chenopodium album; [2]) was > 85% and the pest or weed control at 16 g/ha (Setaria viridis; [3]) was > 85%.
`COC(=O)C(OC)Oc1ccccc1Oc1cc(-n2c(=O)c(C)c(C(F)(F)F)n(C)c2=O)c(F)cc1Br` (racemic) [example 11, methyl rac-2-[2-[2-bromo-5-[3,5-dimethyl-2,6-dioxo-4-(trifluoromethyl)pyrimidin-1-yl]-4-fluoro-phenoxy]phenoxy]-2-methoxy-acetate] was tested, and the pest or weed control at 16 g/ha (Amaranthus retroflexus; [1]) was > 85%, the pest or weed control at 16 g/ha (Chenopodium album; [2]) was > 85% and the pest or weed control at 16 g/ha (Setaria viridis; [3]) was > 85%.
`COC(=O)C(OC)Oc1ncccc1Oc1cc(-n2c(=O)cc(C(F)(F)F)n(C)c2=O)c(F)cc1Br` (racemic) [example 12, methyl rac-2-[[3-[2-bromo-4-fluoro-5-[3-methyl-2,6-dioxo-4-(trifluoromethyl)pyrimidin-1-yl]phenoxy]-2-pyridyl]oxy]-2-methoxy-acetate] was tested, and the pest or weed control at 16 g/ha (Amaranthus retroflexus; [1]) was > 85% and the pest or weed control at 16 g/ha (Chenopodium album; [2]) was > 85%.
`COC(=O)C(OC)Oc1ccccc1Oc1cc(-n2c(=O)cc(C(F)(F)F)n(C)c2=O)c(F)cc1Cl` (centres unmarked) [cmpd 3 (WO 11/137088)] showed a damages (Alopecurus myosuroides; application rate 4 g/ha) of 75, a damages (Alopecurus myosuroides; application rate 8 g/ha) of 80 and a damages (Lolium multiflorum; application rate 4 g/ha) of 60. The damages (Lolium multiflorum; application rate 8 g/ha) was 75, the damages (Avena fatua) was 65 and the damages (Echinocloa crus-galli; application rate 1 g/ha) was 45. The damages (Echinocloa crus-galli; application rate 2 g/ha) was 90.
Molecule `COC(=O)C(OC)Oc1ccccc1Oc1nc(-n2c(=O)cc(C(F)(F)F)n(C)c2=O)c(F)cc1Br` (centres unmarked) [cmpd I.a.646 (WO 17/202768)] has a damages (Alopecurus myosuroides; application rate 4 g/ha) of 50, a damages (Alopecurus myosuroides; application rate 8 g/ha) of 70 and a damages (Lolium multiflorum; application rate 4 g/ha) of 60. For the same molecule, the damages (Lolium multiflorum; application rate 8 g/ha) was 65, the damages (Avena fatua) was 40 and the damages (Echinocloa crus-galli; application rate 1 g/ha) was 25. For the same molecule, the damages (Echinocloa crus-galli; application rate 2 g/ha) was 65.
With `COC(=O)C(OC)Oc1ccccc1Oc1cc(-n2c(=O)cc(C(F)(F)F)n(C)c2=O)c(F)cc1Br` (centres unmarked) [example 1, Methyl 2-[2-[2-bromo-4-fluoro-5-[3-methyl-2,6-dioxo-4-(trifluoromethyl)pyrimidin-1-yl]phenoxy]phenoxy]-2-methoxy-acetate] the pest or weed control at 16 g/ha (Amaranthus retroflexus; read-out: herbicidal activity) was > 85%, the pest or weed control at 16 g/ha (Chenopodium album; read-out: herbicidal activity) was > 85% and the pest or weed control at 16 g/ha (Setaria viridis; read-out: herbicidal activity) was > 85%. It also gave a damages (Alopecurus myosuroides; application rate 4 g/ha) of 95, a damages (Alopecurus myosuroides; application rate 8 g/ha) of 95 and a damages (Lolium multiflorum; application rate 4 g/ha) of 75. For the same molecule, the damages (Lolium multiflorum; application rate 8 g/ha) was 85, the damages (Avena fatua) was 85 and the damages (Echinocloa crus-galli; application rate 1 g/ha) was 90. It also gave a damages (Echinocloa crus-galli; application rate 2 g/ha) of 98.
